Measured values published in the supplement of paper PMC12463676, “Small-molecule dissolution of stress granules by redox modulation benefits ALS models” (Nature Chemical Biology, 2025).

Assays:
lipoamide = compound: NC(=O)CCCCC1CCSS1 [lipoamide]; experiment: thermal stability z-score vs DMSO; higher = more thermally stabilized by treatment; details: HeLa, lipoamide concentration 100 µM
Description: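 Cellular thermal proteome profiling in HeLa cells. Cells were treated with 100 µM lipoamide for 1 h, with or without 1 mM arsenate for a further 1 h, then heated to ten temperatures (37-66.3 °C), and soluble protein was quantified by TMT mass spectrometry relative to 0.1% DMSO controls. The thermal stability score (sum of log2 fold changes minus the abundance score) was transformed to a z-score; mean of n = 3 experiments.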

potassium arsenate = compound: O=[As]([O-])(O)O.[K+] [potassium arsenate]; experiment: as above; details: HeLa; arsenate concentration 1 mM
Description: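 Cellular thermal proteome profiling in HeLa cells treated with 1 mM arsenate for 1 h (DMSO pretreatment), heated to ten temperatures (37-66.3 °C). Soluble protein was quantified by TMT mass spectrometry relative to DMSO controls; the thermal stability score was transformed to a z-score; mean of n = 3 experiments.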

[1] = arsenate co-treatment: 1 mM arsenate 1 h
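Further: each temperature applied for 3 min, abundance score taken as mean log2 fold change at the two lowest temperatures, z-score obtained by mean subtraction and division by SD.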

Chain of UniProt Q6DKJ4 (Q6DKJ4 whole entry): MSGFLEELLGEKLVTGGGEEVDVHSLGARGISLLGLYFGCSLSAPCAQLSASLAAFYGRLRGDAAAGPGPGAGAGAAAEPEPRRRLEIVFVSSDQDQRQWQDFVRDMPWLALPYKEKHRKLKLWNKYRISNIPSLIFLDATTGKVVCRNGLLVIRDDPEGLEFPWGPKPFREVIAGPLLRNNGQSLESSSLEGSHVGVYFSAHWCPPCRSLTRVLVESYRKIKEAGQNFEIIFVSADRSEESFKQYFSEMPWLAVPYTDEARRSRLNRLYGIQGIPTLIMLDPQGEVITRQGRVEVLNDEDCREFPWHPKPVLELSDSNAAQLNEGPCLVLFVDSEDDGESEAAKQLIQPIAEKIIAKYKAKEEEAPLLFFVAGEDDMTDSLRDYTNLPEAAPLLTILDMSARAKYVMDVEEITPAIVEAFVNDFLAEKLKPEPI
Chain of UniProt Q9Y6K5 (Q9Y6K5 whole entry): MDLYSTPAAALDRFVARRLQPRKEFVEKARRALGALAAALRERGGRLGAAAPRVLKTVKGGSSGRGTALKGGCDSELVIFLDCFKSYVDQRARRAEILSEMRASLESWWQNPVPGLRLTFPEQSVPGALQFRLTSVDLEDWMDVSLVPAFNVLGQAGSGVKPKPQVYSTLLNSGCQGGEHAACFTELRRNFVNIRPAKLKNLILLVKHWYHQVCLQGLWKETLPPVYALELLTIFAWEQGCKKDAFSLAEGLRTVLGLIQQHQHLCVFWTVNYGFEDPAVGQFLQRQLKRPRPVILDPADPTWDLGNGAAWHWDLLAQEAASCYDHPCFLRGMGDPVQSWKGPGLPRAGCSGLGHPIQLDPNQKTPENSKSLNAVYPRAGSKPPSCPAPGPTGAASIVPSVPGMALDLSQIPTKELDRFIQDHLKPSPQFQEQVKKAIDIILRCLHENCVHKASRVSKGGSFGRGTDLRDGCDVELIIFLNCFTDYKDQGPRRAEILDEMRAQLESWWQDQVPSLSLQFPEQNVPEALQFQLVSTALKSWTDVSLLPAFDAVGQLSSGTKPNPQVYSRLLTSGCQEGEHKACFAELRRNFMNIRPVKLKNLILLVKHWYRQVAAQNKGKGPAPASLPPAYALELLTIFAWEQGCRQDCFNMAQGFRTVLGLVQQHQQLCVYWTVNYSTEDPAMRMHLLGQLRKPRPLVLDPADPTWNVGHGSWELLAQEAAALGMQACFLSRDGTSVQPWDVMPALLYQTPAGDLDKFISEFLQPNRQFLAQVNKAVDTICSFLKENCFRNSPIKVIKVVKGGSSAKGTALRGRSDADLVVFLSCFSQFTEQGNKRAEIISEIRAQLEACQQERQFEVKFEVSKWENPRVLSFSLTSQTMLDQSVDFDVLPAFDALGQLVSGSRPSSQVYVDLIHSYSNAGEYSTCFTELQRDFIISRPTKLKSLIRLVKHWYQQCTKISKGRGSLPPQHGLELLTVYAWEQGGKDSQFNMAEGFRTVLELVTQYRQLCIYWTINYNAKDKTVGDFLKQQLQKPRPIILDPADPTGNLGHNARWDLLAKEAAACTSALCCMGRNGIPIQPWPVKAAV
Chain of UniProt Q9H4B0 (Q9H4B0 whole entry): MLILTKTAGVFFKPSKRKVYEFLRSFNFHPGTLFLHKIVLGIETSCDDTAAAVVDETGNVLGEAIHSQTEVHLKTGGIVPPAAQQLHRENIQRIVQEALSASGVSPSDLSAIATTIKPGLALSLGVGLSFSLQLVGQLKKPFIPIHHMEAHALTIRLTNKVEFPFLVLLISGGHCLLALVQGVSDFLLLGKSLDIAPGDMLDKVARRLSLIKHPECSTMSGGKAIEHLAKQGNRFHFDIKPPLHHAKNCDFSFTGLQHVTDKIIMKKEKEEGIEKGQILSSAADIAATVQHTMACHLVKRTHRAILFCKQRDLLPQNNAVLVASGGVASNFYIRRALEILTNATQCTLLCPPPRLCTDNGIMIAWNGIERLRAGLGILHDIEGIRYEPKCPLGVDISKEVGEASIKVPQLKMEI
Chain of UniProt O75694 (O75694 whole entry): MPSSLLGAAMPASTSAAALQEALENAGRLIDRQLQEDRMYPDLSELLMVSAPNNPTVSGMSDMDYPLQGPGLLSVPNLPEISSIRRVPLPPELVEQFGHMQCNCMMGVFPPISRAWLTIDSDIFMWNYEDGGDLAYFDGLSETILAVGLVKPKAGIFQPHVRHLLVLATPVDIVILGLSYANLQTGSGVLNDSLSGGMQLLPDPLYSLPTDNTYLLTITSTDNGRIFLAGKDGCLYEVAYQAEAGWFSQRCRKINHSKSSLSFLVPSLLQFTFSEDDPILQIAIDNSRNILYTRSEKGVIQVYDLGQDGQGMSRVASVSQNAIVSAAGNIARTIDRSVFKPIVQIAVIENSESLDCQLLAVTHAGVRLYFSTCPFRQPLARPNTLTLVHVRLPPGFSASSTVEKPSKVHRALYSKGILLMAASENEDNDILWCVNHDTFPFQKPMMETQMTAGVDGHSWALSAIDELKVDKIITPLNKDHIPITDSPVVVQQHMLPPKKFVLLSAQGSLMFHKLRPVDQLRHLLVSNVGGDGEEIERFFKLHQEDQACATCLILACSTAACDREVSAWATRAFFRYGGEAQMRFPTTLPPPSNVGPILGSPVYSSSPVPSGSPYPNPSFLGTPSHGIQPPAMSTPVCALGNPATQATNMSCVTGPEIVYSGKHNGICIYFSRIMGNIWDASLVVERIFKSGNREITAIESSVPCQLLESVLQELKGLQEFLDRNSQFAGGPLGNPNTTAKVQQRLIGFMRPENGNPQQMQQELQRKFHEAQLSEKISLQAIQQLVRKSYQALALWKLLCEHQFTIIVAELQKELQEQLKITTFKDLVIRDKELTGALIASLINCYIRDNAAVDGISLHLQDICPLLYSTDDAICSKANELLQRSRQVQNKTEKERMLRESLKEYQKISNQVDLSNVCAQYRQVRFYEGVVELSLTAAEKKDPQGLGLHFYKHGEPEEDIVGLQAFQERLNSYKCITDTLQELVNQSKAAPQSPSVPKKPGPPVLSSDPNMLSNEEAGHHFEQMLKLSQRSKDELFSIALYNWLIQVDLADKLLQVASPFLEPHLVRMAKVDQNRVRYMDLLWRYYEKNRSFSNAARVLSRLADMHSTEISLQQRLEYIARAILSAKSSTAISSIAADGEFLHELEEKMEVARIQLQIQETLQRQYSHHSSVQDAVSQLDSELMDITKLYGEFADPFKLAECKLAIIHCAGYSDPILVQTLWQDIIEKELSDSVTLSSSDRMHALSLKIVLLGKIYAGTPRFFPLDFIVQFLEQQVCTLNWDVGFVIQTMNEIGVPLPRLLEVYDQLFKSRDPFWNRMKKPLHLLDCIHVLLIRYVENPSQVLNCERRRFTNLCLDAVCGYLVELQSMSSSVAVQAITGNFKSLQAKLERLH
Chain of UniProt Q8N543 (Q8N543 whole entry): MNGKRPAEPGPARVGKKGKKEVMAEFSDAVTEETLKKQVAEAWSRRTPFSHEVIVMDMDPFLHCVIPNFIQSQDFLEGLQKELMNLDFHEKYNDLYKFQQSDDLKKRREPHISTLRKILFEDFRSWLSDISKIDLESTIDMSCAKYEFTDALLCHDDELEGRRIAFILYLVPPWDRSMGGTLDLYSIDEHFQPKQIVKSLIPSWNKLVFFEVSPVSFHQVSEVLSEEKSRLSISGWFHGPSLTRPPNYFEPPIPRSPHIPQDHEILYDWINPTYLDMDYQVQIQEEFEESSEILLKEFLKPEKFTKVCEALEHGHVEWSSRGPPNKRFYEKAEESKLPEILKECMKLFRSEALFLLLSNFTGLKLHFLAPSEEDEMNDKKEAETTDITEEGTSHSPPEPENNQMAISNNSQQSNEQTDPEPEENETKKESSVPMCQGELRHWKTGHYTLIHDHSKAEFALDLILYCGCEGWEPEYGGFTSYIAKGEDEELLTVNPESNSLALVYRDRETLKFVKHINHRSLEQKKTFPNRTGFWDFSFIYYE
Chain of UniProt O43913 (O43913 whole entry): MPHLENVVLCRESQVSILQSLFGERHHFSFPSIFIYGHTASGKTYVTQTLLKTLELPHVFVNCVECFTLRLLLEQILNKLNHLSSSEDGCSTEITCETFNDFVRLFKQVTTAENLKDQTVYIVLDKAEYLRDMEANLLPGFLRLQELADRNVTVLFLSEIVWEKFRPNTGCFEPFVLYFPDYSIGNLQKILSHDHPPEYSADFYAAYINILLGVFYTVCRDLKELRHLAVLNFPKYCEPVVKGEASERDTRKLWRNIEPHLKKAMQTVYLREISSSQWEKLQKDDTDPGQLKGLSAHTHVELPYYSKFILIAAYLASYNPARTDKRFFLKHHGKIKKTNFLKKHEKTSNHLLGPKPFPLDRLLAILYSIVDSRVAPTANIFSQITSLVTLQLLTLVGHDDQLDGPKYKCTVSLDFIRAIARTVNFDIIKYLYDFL
Chain of UniProt Q9BXB4 (Q9BXB4 whole entry): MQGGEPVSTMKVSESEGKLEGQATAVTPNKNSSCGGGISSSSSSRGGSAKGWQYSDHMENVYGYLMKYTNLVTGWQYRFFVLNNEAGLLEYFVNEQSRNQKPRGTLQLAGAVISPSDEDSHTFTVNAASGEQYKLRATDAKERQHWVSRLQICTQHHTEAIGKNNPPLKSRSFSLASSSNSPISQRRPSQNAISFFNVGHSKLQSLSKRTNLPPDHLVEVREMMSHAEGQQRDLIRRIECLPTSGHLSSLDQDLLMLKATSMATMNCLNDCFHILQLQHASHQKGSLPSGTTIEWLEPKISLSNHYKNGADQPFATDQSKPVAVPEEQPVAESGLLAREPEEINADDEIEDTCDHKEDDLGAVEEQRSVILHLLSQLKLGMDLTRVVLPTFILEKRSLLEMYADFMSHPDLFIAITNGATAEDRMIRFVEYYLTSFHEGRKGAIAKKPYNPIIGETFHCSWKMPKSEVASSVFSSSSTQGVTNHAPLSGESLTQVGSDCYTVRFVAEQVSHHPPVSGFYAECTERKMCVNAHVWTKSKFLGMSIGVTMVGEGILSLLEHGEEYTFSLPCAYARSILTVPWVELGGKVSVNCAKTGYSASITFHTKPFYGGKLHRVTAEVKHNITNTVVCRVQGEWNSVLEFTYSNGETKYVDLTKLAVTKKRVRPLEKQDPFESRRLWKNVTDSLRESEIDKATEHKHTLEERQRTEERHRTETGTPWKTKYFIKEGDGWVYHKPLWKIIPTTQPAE

Target | thermal stability z-score (lipoamide; [1]) | thermal stability z-score (lipoamide; arsenate co-treatment: none) | thermal stability z-score (potassium arsenate)
NUP85 (UniProt Q9BW27) | 0.16 | 0.113 | 0.613
NUP88 (UniProt Q99567) | -0.607 | -0.513 | 0.549
NUP93 (UniProt Q8N1F7) | -0.614 | -0.482 | 0.232
NUP98 (UniProt P52948) | -0.415 | -0.292 | 0.214
NUP107 (UniProt P57740) | -0.163 | -0.0082 | 0.77
NUP133 (UniProt Q8WUM0) | -0.312 | -0.456 | -0.139
NUP153 (UniProt P49790) | 0.99 | 0.627 | 3.83
NUP155 (UniProt O75694) | -0.814 | -0.769 | 0.275
NUP160 (UniProt Q12769) | 0.198 | 0.123 | 1.01
NUP188 (UniProt Q5SRE5) | -0.451 | -0.512 | 0.426
NUP205 (UniProt Q92621) | -0.769 | -0.572 | 1.05
NUP210 (UniProt Q8TEM1) | -0.954 | -1.03 | 0.685
NUP214 (UniProt P35658) | -0.0103 | -0.132 | 0.815
NUS1 (UniProt Q96E22) | 0.421 | 0.252 | 0.015
NUSAP1 (UniProt Q9BXS6) | 0.43 | 0.187 | 0.758
NUTF2 (UniProt P61970) | 0.312 | 0.256 | -0.609
NVL (UniProt O15381) | -0.0288 | -0.0652 | 0.0113
NXF1 (UniProt Q9UBU9) | 0.0906 | 0.0765 | -0.127
NXN (UniProt Q6DKJ4) | 0.0765 | 0.152 | 0.314
OARD1 (UniProt Q9Y530) | 0.407 | 0.708 | -0.793
OAS1 (UniProt P00973) | -0.156 | 0.0182 | -0.247
OAS3 (UniProt Q9Y6K5) | -0.0852 | 0.257 | -0.07
OASL (UniProt Q15646) | -0.147 | -0.0704 | -0.307
OAT (UniProt P04181) | -0.684 | -0.588 | 3.08

Target | thermal stability z-score (lipoamide; [1]) | thermal stability z-score (lipoamide; arsenate co-treatment: none) | thermal stability z-score (potassium arsenate)
OBSL1 (UniProt O75147) | -0.175 | -0.0603 | -0.307
OCIAD1 (UniProt Q9NX40) | 0.0741 | -0.143 | -0.448
OCIAD2 (UniProt Q56VL3) | 0.194 | 0.205 | 0.549
OCRL (UniProt Q01968) | 0.142 | 0.13 | 0.24
ODC1 (UniProt P11926) | 0.0303 | 0.354 | 0.106
ODF2 (UniProt Q5BJF6) | 0.0591 | 0.0281 | -0.129
ODR4 (UniProt Q5SWX8) | -0.0304 | 0.112 | 0.137
OFD1 (UniProt O75665) | -0.239 | 0.0566 | -0.000259
OGDH (UniProt Q02218) | 0.182 | 0.151 | -0.531
OGFOD1 (UniProt Q8N543) | 0.312 | -0.342 | 1.04
OGFOD3 (UniProt Q6PK18) | 0.0324 | -0.274 | -0.0712
OGFR (UniProt Q9NZT2) | 0.681 | 0.943 | 1.72
OGT (UniProt O15294) | -0.039 | -0.08 | 0.254
OLA1 (UniProt Q9NTK5) | 0.522 | 0.49 | -0.463
OLR1 (UniProt P78380) | -0.828 | -0.797 | 0.938
OMA1 (UniProt Q96E52) | -0.791 | -1.46 | -0.431
OPA1 (UniProt O60313) | -0.697 | -0.456 | 0.749
OPA3 (UniProt Q9H6K4) | 1.42 | 0.732 | 0.247
OPHN1 (UniProt O60890) | -0.0389 | 0.0614 | 0.0261
OPLAH (UniProt O14841) | -0.0343 | 0.0614 | -0.0405
OPTN (UniProt Q96CV9) | -0.94 | -0.477 | 1.01
ORC2 (UniProt Q13416) | 0.0753 | 0.0589 | 0.0824
ORC3 (UniProt Q9UBD5) | -0.0418 | -0.104 | -0.00481
ORC4 (UniProt O43929) | -0.121 | -0.0936 | -0.113

Target | thermal stability z-score (lipoamide; [1]) | thermal stability z-score (lipoamide; arsenate co-treatment: none) | thermal stability z-score (potassium arsenate)
ORC5 (UniProt O43913) | -0.0478 | 0.0761 | -0.065
ORC6 (UniProt Q9Y5N6) | -0.246 | -0.0524 | -1.11
OS9 (UniProt Q13438) | -3.59 | -3.15 | 0.706
OSBP2 (UniProt Q969R2) | 0.192 | 0.026 | -0.124
OSBP (UniProt P22059) | 0.983 | 0.414 | -1.62
OSBPL1A (UniProt Q9BXW6) | -1.13 | 0.611 | 0.355
OSBPL2 (UniProt Q9H1P3) | -0.0428 | 0.0817 | -0.0657
OSBPL3 (UniProt Q9H4L5) | -1.67 | -0.909 | -0.969
OSBPL5 (UniProt Q9H0X9) | -0.28 | -0.534 | -0.386
OSBPL8 (UniProt Q9BZF1) | -1.47 | -1.21 | -0.00618
OSBPL9 (UniProt Q96SU4) | -0.647 | -0.627 | 0.219
OSBPL10 (UniProt Q9BXB5) | -1.14 | -0.711 | -1.41
OSBPL11 (UniProt Q9BXB4) | -0.766 | -0.267 | 0.989
OSGEP (UniProt Q9NPF4) | -0.0754 | 0.487 | -0.208
OSGEPL1 (UniProt Q9H4B0) | 0.0734 | -0.263 | -0.494
OSMR (UniProt Q99650) | -1.48 | -0.64 | 1.55
OSTF1 (UniProt Q92882) | -0.217 | 0.551 | 0.00115
OTUB1 (UniProt Q96FW1) | 0.513 | 0.823 | -0.468
OTUD4 (UniProt Q01804) | 0.168 | 0.183 | 0.258
OTUD5 (UniProt Q96G74) | -0.721 | 0.294 | 1.72
OTUD6B (UniProt Q8N6M0) | 0.504 | -0.85 | 0.0655
OTUD7B (UniProt Q6GQQ9) | 0.194 | 0.173 | 0.0572
OTULIN (UniProt Q96BN8) | -0.269 | -0.186 | -0.452
